# Source: ChEMBL document CHEMBL1134899, “Non-steroidal pregnancy-terminating agents: design, synthesis and structure-activity relationships of 2-aryl-1,2,4-triazolo[1,5-a]pyridine” (2002)
# The source made the active and inactive calls. The calls are words filed in the database; no cut-off is given here.
# Tests used:
# [1] = species: Rattus norvegicus; experiment: Compound was tested for in vitro activity of luteolysis on corpora lutea from pseudopregnant rats; inactive; format: functional
# [2] = species: Rattus norvegicus; experiment: Compound was tested for in vitro activity of luteolysis on corpora lutea from pseudopregnant rats; format: functional; conditions: read-out: ED50 (the source's name)
SMILES,ED50 [1],EC50 [2]
Cc1cccc2nc(-c3ccccc3)nn12,inactive,–
Cc1cccc2nc(-c3ccc4c(c3)OCO4)nn12,–,65 µM
